Results: patent US8383637B2, “2-amino-quinazoline derivatives useful as inhibitors of β-secretase (BACE)” (Jansssen Pharmaceutica N.V., priority 2004, dated 2013)

Target: T1, β-secretase(BACE) (Homo sapiens, UniProt P56817)
T1 construct: purchased Panvera
Test: BACE FS1% Inhibition Assay
Format: biochemical
Conditions: FS1 substrate; for % Inhibition (FS) 0.3 μM: 0.3 μM test compound; for % Inhibition (FS) 1 μM: 1 μM test compound; for % Inhibition (FS) 3 μM: 3 μM test compound
Experimental: BACE FS1% Inhibition Assay The following reagents were used in this assay: sodium acetate, PEG8000 (Sigma), DMSO, HEPES, FS1 substrate [[…]] […] The FS1-substrate stock solution was prepared in DMSO as a 10 mg/mL solution. The FS1-substrate working solution was prepared by diluting the 10 mg/mL stock solution with substrate assay buffer to a final concentration of 300 μg/mL. The β-secretase (BACE) working solution was prepared by diluting a 0.83 mg/mL BACE stock solution with enzyme assay buffer to a final concentration of 4 μg/mL. Test compounds were dissolved in DMSO to 10 mM. […] The screening procedure for this assay was as follows: 15 μL of BACE working solution was pipetted into each well of a 96-well plate. To each well was then pipetted 2 μL of test compound at the selected concentration. Test compound and BACE were then mixed with a pipettor and incubated for 20 min at room temperature. To each well was then added 10 μL of the FS1 substrate working solution. The plates were then incubated for 1 hour at room temperature. […] The procedure for the blank was as follows. 15 μL of assay buffer was pipetted into each well to be used as a blank control. To each well was then added 2 μL of vehicle and 10 μL of FS1-substrate working solution. The plates were then incubated for 1 hour at room temperature. […] The procedure for the positive control was as follows: 15 μL of BACE working solution was pipetted into each well to be used as a positive control. To each well was then pipetted 2 μL of vehicle. Vehicle and BACE were then mixed with a pipettor and incubated for 20 min at room temperature. To each well was then added 10 μL of the FS1 substrate working solution. The plates were then incubated for 1 hour at room temperature. […] For test compounds, % inhibition was determined at each concentration as follows: [formula]

T1 sequence (P56817 46-501): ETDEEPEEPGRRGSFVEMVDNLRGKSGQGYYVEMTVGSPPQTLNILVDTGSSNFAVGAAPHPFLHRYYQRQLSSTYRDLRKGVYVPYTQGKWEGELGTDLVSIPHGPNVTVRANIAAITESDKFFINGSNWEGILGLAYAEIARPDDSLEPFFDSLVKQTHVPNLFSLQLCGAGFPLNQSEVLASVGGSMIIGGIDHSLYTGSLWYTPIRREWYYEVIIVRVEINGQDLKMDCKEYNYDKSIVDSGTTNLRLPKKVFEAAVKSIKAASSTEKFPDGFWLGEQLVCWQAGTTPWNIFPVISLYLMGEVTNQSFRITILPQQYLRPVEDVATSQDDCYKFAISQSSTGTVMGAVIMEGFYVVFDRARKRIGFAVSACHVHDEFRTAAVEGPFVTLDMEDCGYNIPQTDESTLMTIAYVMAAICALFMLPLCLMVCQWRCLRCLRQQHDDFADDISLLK

| Compound | % Inhibition (FS) 0.3 μM [%] | % Inhibition (FS) 1 μM [%] | % Inhibition (FS) 3 μM [%] |
| --- | --- | --- | --- |
| NC1=Nc2ccc(Oc3ccccc3)cc2CN1CCNC(=O)c1ccc(-c2ccccc2)cc1 [Compound 195] | <30 | <30 | <30 |
| CCCN(CC1CC1)C(=O)c1cccc(CN2Cc3cc(Oc4ccccc4)ccc3N=C2N)c1 [Compound 197] | <30 | <30 | 32 |
| CCCCC(CC)CN(CC(CC)CCCC)C(=O)c1cccc(CN2Cc3cc(Oc4ccccc4)ccc3N=C2N)c1 (stereo not drawn) [Compound 198] | <30 | <30 | <30 |
| CN(C(=O)CC(C1CCCCC1)N1Cc2cc(Oc3ccccc3)ccc2N=C1N)C1CCCCC1 (stereo not drawn) [Compound 199] | <30 | <30 | 82 |
| CC(C)N(C(=O)CC(C1CCCCC1)N1Cc2cc(Oc3ccccc3)ccc2N=C1N)C1CCCCC1 (stereo not drawn) [Compound 200] | <30 | <30 | <30 |
| CC(C)C(CC(=O)N(C(C)C)C1CCCCC1)N1Cc2cc(Oc3ccccc3)ccc2N=C1N (stereo not drawn) [Compound 202] | <30 | <30 | <30 |
| NC1=Nc2ccc(Oc3ccccc3)cc2CN1CCNC(=O)C(c1ccccc1)c1ccccc1 [Compound 207] | 48 | 90 | 108 |
| CCCCCCCCC(CCC(=O)NC1CCCCCC1)N1Cc2cc(Oc3ccccc3)ccc2N=C1N (stereo not drawn) [Compound 208] | <30 | <30 | 67 |
| CCCCCCCCC(CCC(=O)N(C)C1CCCCC1)N1Cc2cc(Oc3ccccc3)ccc2N=C1N (stereo not drawn) [Compound 210] | <30 | <30 | <30 |
| NC1=Nc2ccc(Oc3ccccc3)cc2CN1Cc1cccc(C(=O)N2CCCC3CCCCC32)c1 (stereo not drawn) [Compound 212] | <30 | <30 | 32 |
| CC1CCC(NC(=O)c2cccc(CN3Cc4cc(Oc5ccccc5)ccc4N=C3N)c2)CC1 (stereo not drawn) [Compound 213] | <30 | <30 | <30 |
| COc1cccc(C(=O)NCCN2Cc3cc(Oc4ccccc4)ccc3N=C2N)c1 [Compound 217] | <30 | <30 | 56 |
| CN1CCCC1CCNC(=O)c1cccc(CN2Cc3cc(Oc4ccccc4)ccc3N=C2N)c1 (stereo not drawn) [Compound 222] | <30 | <30 | <30 |
| CN1CCC(N(C)C(=O)c2cccc(CN3Cc4cc(Oc5ccccc5)ccc4N=C3N)c2)CC1 [Compound 223] | <30 | <30 | <30 |
| CC(C)(C)OC(=O)Nc1cccc(CN2Cc3cc(Oc4ccccc4)ccc3N=C2N)c1 [Compound 224] | <30 | <30 | <30 |
| Cc1cc(C)cc(Oc2ccc3c(c2)CN(Cc2cccc(C(=O)N(C)C4CCCCC4)c2)C(N)=N3)c1 [Compound 228] | <30 | 49 | 40 |
| CC(=O)Nc1cccc(Oc2ccc3c(c2)CN(Cc2cccc(C(=O)N(C)C4CCCCC4)c2)C(N)=N3)c1 [Compound 229] | <30 | 35 | <30 |
| CN(C(=O)c1cccc(CN2Cc3cc(Oc4cccnc4)ccc3N=C2N)c1)C1CCCCC1 [Compound 230] | <30 | 33 | <30 |
| COc1ccccc1Oc1ccc2c(c1)CN(Cc1cccc(C(=O)N(C)C3CCCCC3)c1)C(N)=N2 [Compound 232] | <30 | <30 | 31 |
| CN(C(=O)c1cccc(CN2Cc3cc(Oc4ccc5c(c4)CCCC5)ccc3N=C2N)c1)C1CCCCC1 [Compound 233] | <30 | 32 | 36 |
| CN(C(=O)c1cccc(CN2Cc3cc(Oc4ccccc4-c4ccccc4)ccc3N=C2N)c1)C1CCCCC1 [Compound 234] | <30 | 57 | 43 |
| CN(C(=O)c1cccc(CN2Cc3cc(Oc4ccccc4CC(N)=O)ccc3N=C2N)c1)C1CCCCC1 [Compound 235] | <30 | 46 | <30 |
| CN(C(=O)c1cccc(CN2Cc3cc(Oc4cccc(Oc5ccccc5)c4)ccc3N=C2N)c1)C1CCCCC1 [Compound 236] | <30 | 37 | 49 |
| CC(C)(C)OC(=O)NCC(C1CCCCC1)N1Cc2cc(Oc3ccccc3)ccc2N=C1N (stereo not drawn) [Compound 257] | 67 | 105 | 111 |
| CN(C(=O)c1cccc(CN2Cc3cc(C=Cc4ccccc4)ccc3N=C2N)c1)C1CCCCC1 [Compound 266] | <30 | 34 | <30 |
| CN(C(=O)c1cccc(CN2Cc3cc(-c4ccc(C5CCCCC5)cc4)ccc3N=C2N)c1)C1CCCCC1 [Compound 267] | <30 | 39 | 38 |
| NC1=Nc2ccc(Oc3ccccc3)cc2CN1Cc1cccc(NC(=O)C2CCCCC2)c1 [Compound 286] | <30 | <30 | 36 |

The next lines start with the values.

| % Inhibition (FS) 0.3 μM [%] | % Inhibition (FS) 1 μM [%] | % Inhibition (FS) 3 μM [%] | Compound |
| --- | --- | --- | --- |
| <30 | <30 | <30 | CC(C)(C)C(=O)Nc1cccc(CN2Cc3cc(Oc4ccccc4)ccc3N=C2N)c1 [Compound 290] |
| 79 | 106 | 116 | NC1=Nc2ccc(Oc3ccccc3)cc2CN1C(CNC(=O)C1CCCC1)C1CCCCC1 (stereo not drawn) [Compound 295] |
| <30 | <30 | <30 | NC1=Nc2ccc(Oc3ccccc3)cc2CN1C(CC(=O)NC1CCCCC1)c1ccccc1 (stereo not drawn) [Compound 299] |
| <30 | <30 | 77 | NC1=Nc2ccc(Oc3ccccc3)cc2CN1C(CC(=O)NC1CCCCC1)C1CCCCC1 (stereo not drawn) [Compound 300] |
| <30 | <30 | 46 | NC1=Nc2ccc(Oc3ccccc3)cc2CN1Cc1cccc(CNC(=O)C2CCCCC2)c1 [Compound 306] |
| <30 | <30 | <30 | NC1=Nc2ccc(Oc3ccccc3)cc2CN1Cc1cccc(CNC(=O)C(F)(F)F)c1 [Compound 307] |
| <30 | <30 | 57 | CN(C(=O)c1cccc(C(CC2CCCCC2)N2Cc3cc(Oc4ccccc4)ccc3N=C2N)c1)C1CCCCC1 (stereo not drawn) [Compound 310] |
| 74 | 103 | 115 | NC1=Nc2ccc(Oc3ccccc3)cc2CN1C(CNC(=O)C12CC3CC(CC(C3)C1)C2)C1CCCCC1 (stereo not drawn) [Compound 312] |
| <30 | <30 | 31 | CC(C)c1ccccc1Oc1ccc2c(c1)CN(C(CC(=O)NC1CCCCC1)C1CCCCC1)C(N)=N2 (stereo not drawn) [Compound 313] |
| <30 | 45 | 85 | NC1=Nc2ccc(Oc3ccccc3)cc2CN1C(CC(=O)NC1C2CC3CC(C2)CC1C3)C1CCCCC1 (stereo not drawn) [Compound 314] |
| <30 | <30 | 33 | CC(C)(C)OC(=O)NCc1cccc(CN2Cc3cc(Oc4ccccc4)ccc3N=C2N)c1 [Compound 315] |
| <30 | <30 | <30 | CN1CCC(N(C)C(=O)c2cccc(C(c3ccccc3)N3Cc4cc(Oc5ccccc5)ccc4N=C3N)c2)CC1 (stereo not drawn) [Compound 316] |
| −31 | <30 | <30 | CCc1ccccc1-c1ccc2c(c1)CN(Cc1cccc(C(=O)N(C)C3CCCCC3)c1)C(N)=N2 [Compound 320] |
| −33 | <30 | <30 | CN(C(=O)c1cccc(CN2Cc3cc(-c4ccccc4-c4ccccc4)ccc3N=C2N)c1)C1CCCCC1 [Compound 321] |
